The numbers were not newly measured in US20040009220A1, “Rate-controlled beta blockers and process for forming same” (priority 2001, published 2004), which cites them from elsewhere.

Structures are written as SMILES.

For data set [1] the following is noted: in man.

Consider `COCCc1ccc(OCC(O)CNC(C)C)cc1` (centres unmarked) [Metroprolol], for which the plasma half life result in data set [1] is on record as “three to seven”.

`COCCc1ccc(OCC(O)CNC(C)C)cc1` (centres unmarked) [metoprolol succinate]: the solubility in water entry is recorded as “freely soluble in water”.
